# The RepoRT retention time repository (doi:10.1016/j.chroma.2015.11.014)
# Assay: RP, Agilent ZORBAX Eclipse Plus C18, 150 × 2.1 mm, 3.5 µm, 40 °C, 0.3 mL/min, estimated dead time 1.1 min; A: water + 0.1% formic acid; B: acetonitrile + 0.1% formic acid; gradient (min/%B) 0/2 1/2 2/20 16.5/98 22/98
# Details: stereoisomer not certain
row,Structure (SMILES),LC retention time [min]
1,Cn1cnc([N+](=O)[O-])c1Sc1ncnc2nc[nH]c12,5.37
2,CC12CCC3c4ccc(OS(=O)(=O)O)cc4CCC3C1CCC2=O (stereo unspecified),11.1
3,COC[P+](c1ccccc1)(c1ccccc1)c1ccccc1,7.5
4,CC12CCC3C4CCC(=O)C=C4CCC3C1CCC2O (stereo unspecified),10.4
5,CC(C)NCC(O)COc1ccc(C(O)C(N)=O)cc1 (stereo unspecified),3.21
6,CC(C)COP(=O)(OCC(C)C)OCC(C)C,14
7,CN(C)c1nc2c(ncn2C2OC(CO)C(O)C2O)c(=O)[nH]1 (stereo unspecified),4.57
8,CC(=O)Nc1ccc(S(=O)(=O)Nc2cc(C)on2)cc1,7.41
9,CCCCCC[N+](CCCCCC)(CCCCCC)CCCCCC,13.1
10,COc1ccc2cc(C(C)C(=O)O)ccc2c1 (stereo unspecified),10.9
11,CNC(=C[N+](=O)[O-])NCCSCc1ccc(CN(C)C)o1,4.83
12,O=C1CC(c2ccccc2)Oc2ccccc21 (stereo unspecified),12.6
13,COCCOC(=O)Nc1cccc(N)c1,4.8
14,C[N+](C)(C)c1ccccc1,2.83
15,CC(C(=O)O)c1cccc(C(=O)c2ccccc2)c1 (stereo unspecified),10.9
16,O=C(CCc1ccc(O)cc1)c1c(O)cc(O)cc1O,8.77
17,CCCCCCCCCCCCCC[P+](CCCCCC)(CCCCCC)CCCCCC,17.1
18,CCOP(=S)(OCC)Oc1ccc([N+](=O)[O-])cc1,14.1
19,COC(=O)Nc1nc2ccccc2[nH]1,5.08
20,CN(C)CCOC(c1ccccc1)c1ccccc1,7.72
21,CC1(C)CC(OC(=O)CCCCCCCCC(=O)OC2CC(C)(C)NC(C)(C)C2)CC(C)(C)N1,6.57
22,COc1cc(Cc2c(N)nc(N)[nH]c2=O)cc(OC)c1OC,5.43

row,Structure (SMILES),LC retention time [min]
1,CN1CCC23CCCCC2C1Cc1ccc(O)cc13 (stereo unspecified),5.97
2,Cc1cn(C2CC(O)C(CO)O2)c(=O)[nH]c1=O (stereo unspecified),4.53
3,CNC(=O)Oc1cccc2c1OC(C)(C)C2,9.75
4,CC[N+](CC)(CC)Cc1ccccc1,5.09
5,COCCCOc1cc(CC(CC(N)C(O)CC(C(=O)NCC(C)(C)C(N)=O)C(C)C)C(C)C)ccc1OC (stereo unspecified),8.2
6,Cc1cc(C)nc(NS(=O)(=O)c2ccc(N)cc2)n1,6.12
7,CC(C)CC(C)(O)C#CC(C)(O)CC(C)C (stereo unspecified),12.4
8,Cc1ccc(NC(=O)c2ccc(CN3CCN(C)CC3)cc2)cc1Nc1nccc(-c2cccnc2)n1,6.15
9,COC(=O)Nc1cccc(N)c1C,4.42
10,CC12C=CC(=O)C=C1CCC1C2C(=O)CC2(C)C1CCC2(O)C(=O)CO (stereo unspecified),8.47
11,CCCCN1C=CN(C)C1C (stereo unspecified),4.73
12,Nc1ccc(S(=O)(=O)Nc2nccs2)cc1,5.37
13,CC(C)NCC(O)COc1cccc2[nH]ccc12 (stereo unspecified),5.15
14,CCCOc1ccc2nc(NC(=O)OC)[nH]c2c1,6.66
15,C#CC1(O)CCC2C3CCC4=CC(=O)CCC4(C)C3CCC21C (stereo unspecified),11.7
16,COC(=O)C1=C(C)NC(C)=C(C(=O)OC)C1c1ccccc1[N+](=O)[O-],10.9
17,O=C1CN(N=Cc2ccc([N+](=O)[O-])o2)C(=O)N1,6.22
18,O=C1CC(c2ccc(O)cc2)Oc2cc(O)cc(O)c21 (stereo unspecified),9.18
19,CC(C)CC(CN)CC(=O)O (stereo unspecified),5.17
20,c1ccc2c(c1)Nc1ccccc1S2,13.1
21,C#CC1(O)CCC2C3CCC4=C(CCC(=O)C4)C3CCC21C (stereo unspecified),11.1
22,CCOc1ccc(C[P+](c2ccccc2)(c2ccccc2)c2ccccc2)cc1,9.45

row,Structure (SMILES),LC retention time [min]
1,Cc1nnc(-c2ccccc2)c(=O)[nH]1,6.12
2,CC(O)CCCCn1c(=O)c2c(ncn2C)n(C)c1=O (stereo unspecified),6.42
3,COc1ccc(-c2coc3cc(O)ccc3c2=O)cc1,10.1
4,CN(CC=CC#CC(C)(C)C)Cc1cccc2ccccc12,9.65
5,CN(C)[P+](On1nnc2ccccc21)(N(C)C)N(C)C,5.97
6,Nc1nc2c(ncn2C2CC(O)C(CO)O2)c(=O)[nH]1 (stereo unspecified),4.09
7,Oc1cccc2n[nH]nc12,5.34
8,COC(=O)C1CCC(=O)N1 (stereo unspecified),4.58
9,CCCCN1C=CC=CC1,4.24
10,OC(c1ccccc1)(c1ccccc1)C1CCNCC1,6.64
11,CCCCCCCCCCCCCCCC[N+](C)(C)CCCCCCCCCCCCCCCC,18.4
12,CCOc1ccc2ccccc2c1C(=O)NC1C(=O)N2C1SC(C)(C)C2C(=O)O (stereo unspecified),10.6
13,C#CCC1=C(C)C(OC(=O)C2C(C=C(C)C)C2(C)C)CC1=O (stereo unspecified),14.9
14,CCC(C)(C)C(=O)OC1CC(C)C=C2C=CC(C)C(CCC3CC(O)CC(=O)O3)C21 (stereo unspecified),15.4
15,COC(=O)C[P+](c1ccccc1)(c1ccccc1)c1ccccc1,7.72
16,COc1ccc(C(CN)C2(O)CCCCC2)cc1 (stereo unspecified),6.32
17,O=P(c1ccccc1)(c1ccccc1)c1ccccc1,10.5
18,CCOP(=O)(OCC)OCC,7.41
19,Cc1ccnc2c1NC(=O)c1cccnc1N2C1CC1,7.3
20,CCCCCC[N+](C)(C)Cc1ccccc1,7.46
21,CCCCC1=NC2(CCCC2)C(=O)N1Cc1ccc(-c2ccccc2-c2nn[nH]n2)cc1,9.35
22,CCOC(=O)C1=C(C)NC(C)=C(C(=O)OC)C1c1cccc([N+](=O)[O-])c1 (stereo unspecified),12.4

row,Structure (SMILES),LC retention time [min]
1,Cc1c(C(C)C)c(=O)n(-c2ccccc2)n1C,9.54
2,CCCCCCCCCCCCCCCCN1C=CC=CC1,13
3,CN1C(C(=O)Nc2ccccn2)=C(O)c2ccccc2S1(=O)=O,9.53
4,CCCCCCCCCCCCCCCC[P+](CCCC)(CCCC)CCCC,16
5,CCCCCCCCCCCCCCCC(=O)OCC(COP(=O)([O-])OCC[N+](C)(C)C)OC(=O)CCCC(=O)O (stereo unspecified),15.2
6,O=C1CC2(CCCCC2)CO1,9.65
7,CC(=O)OCCCC[P+](c1ccccc1)(c1ccccc1)c1ccccc1,8.85
8,O=C(O)c1c2ccccc2nc2ccccc12,4.66
9,NC(=O)N1c2ccccc2C=Cc2ccccc21,8.87
10,c1ncc2[nH]cnc2n1,2.57
11,COCC(C)N(C(=O)C(=O)O)c1c(C)csc1C (stereo unspecified),8.21
12,COc1ccc(NC(C)=O)cc1,6.51
13,CCCCCCCCCCCCN,9.47
14,CC(=C(CCO)SSC(CCO)=C(C)N(C=O)Cc1cnc(C)nc1N)N(C=O)Cc1cnc(C)nc1N,4.48
15,Cc1c[nH]c(=O)[nH]c1=O,3.23
16,CC(=O)Nc1ccc(C)cc1,7.71
17,CCOC(=O)C(CCc1ccccc1)NC(C)C(=O)N1C(C(=O)O)CC2CCCC21 (stereo unspecified),7.85
18,CCC(CC)OC1C=C(C(=O)O)CC(N)C1NC(C)=O (stereo unspecified),5.65
19,CCC(CCC(C)O)COC(=O)C(C#N)=C(c1ccccc1)c1ccccc1 (stereo unspecified),13.8
20,Nc1nc(NC2CC2)c2ncn(C3C=CC(CO)C3)c2n1 (stereo unspecified),5.09
